Values of other authors in patent publication US20150104528A1, “TREATMENT FOR DEPRESSION AND OTHER MENTAL CONDITIONS WITH SYNTHETIC ISOTOPE-MODIFIED LITHIUM” (priority 2013, published 2015).

System: female mother rats
Conditions: female mother rats fed the substance; same dosage level for both groups

Compound: [6Li] [lithium-6]
- state of alertness compared to control rats fed a placebo: very high
